Experimental data from ChEMBL document CHEMBL4028815, “Novel phosphonate analogs of sulforaphane: Synthesis, in vitro and in vivo anticancer activity” (Eur J Med Chem, 2017).

What was measured:
[1] = tested on: LoVo; assay: Cytotoxicity against human LoVo cells after 72 hrs by sulforhodamine B assay; type: functional, cell-based
[2] = Cytotoxicity against human LoVo/DX cells after 72 hrs by sulforhodamine B assay; type: functional, cell-based
[3] = tested on: LoVo; assay: Potency index, ratio of sulforaphane IC50 to compound IC50 for human LoVo cells; type: functional
[4] = tested on: LoVo; assay: Potency index, ratio of benzyl isothiocyanate IC50 to compound IC50 for human LoVo cells; type: functional
[5] = Resistance index, ratio of IC50 for human HL60/MX2 cells to IC50 for human HL60 cells; type: functional
[6] = tested on: HL60/MX2; assay: Cytotoxicity against human HL60/MX2 cells after 72 hrs by sulforhodamine B assay; type: functional, cell-based; conditions: HL60/MX2, 72 h
[7] = tested on: HL-60; assay: Cytotoxicity against human HL60 cells after 72 hrs by sulforhodamine B assay; type: functional, cell-based; conditions: HL-60, 72 h
[8] = Resistance index, ratio of IC50 for human MESSA/DX5 cells to IC50 for human MESSA cells; type: functional
[9] = tested on: MES-SA; assay: Cytotoxicity against human MESSA cells after 72 hrs by sulforhodamine B assay; type: functional, cell-based
[10] = tested on: MES-SA/Dx5; assay: Cytotoxicity against human MESSA/DX5 cells after 72 hrs by sulforhodamine B assay; type: functional, cell-based; conditions: MES-SA/Dx5, 72 h

Row | Structure (SMILES) | IC50 [1] [µM] | IC50 [2] [µM] | also measured
1 | CC[C@H](C)OP(=O)(CCCCN=C=S)O[C@@H](C)CC | 4.2 | 4.5 | 
2 | CCOP(=O)(CCN=C=S)OCC | 4.5 | 6.1 | 
3 | CC(C)OP(=O)(CCCCCN=C=S)OC(C)C | 2.6 | 7.9 | Ratio IC50 [3]: 10; Ratio IC50 [4]: 5
4 | O=P(CCCCCCN=C=S)(OCc1ccccc1)OCc1ccccc1 | 4.6 | 9.2 | 
5 | O=P(CCCN=C=S)(Oc1ccccc1)Oc1ccccc1 | 4.2 | 10.2 | 
6 | CC(C)COP(=O)(CCCCCN=C=S)OCC(C)C | 2.4 | 5.1 | Ratio IC50 [3]: 10; Ratio IC50 [4]: 5
7 | O=P(CCCN=C=S)(OCC(F)(F)F)OCC(F)(F)F | 3.9 | 4.7 | 
8 | O=P(CCCCN=C=S)(OCc1ccccc1)OCc1ccccc1 | 3.8 | 8.4 | 
9 | COP(=O)(CCCN=C=S)OC | 9.3 | 9.6 | 
10 | CC(C)(C)COP(=O)(CCCCN=C=S)OCC(C)(C)C | 10.2 | 10.6 | 
11 | CC(C)OP(=O)(CCCCN=C=S)OC(C)C | 2.5 | 5 | Ratio IC50 [3]: 10; Ratio IC50 [4]: 5
12 | CC(C)(C)COP(=O)(CCCCCCN=C=S)OCC(C)(C)C | 7.4 | 11.2 | 
13 | O=P(CCCCN=C=S)(OCC(F)(F)F)OCC(F)(F)F | 4.9 | 5.7 | 
14 | COP(=O)(CCCCCN=C=S)OC | 5 | 9.4 | 
15 | CC(C)OP(=O)(CCN=C=S)OC(C)C | 2.7 | 3.6 | Ratio IC50 [3]: 10; Ratio IC50 [4]: 5
16 | O=P(CCCCCCN=C=S)(OCC(F)(F)F)OCC(F)(F)F | 4.2 | 8.8 | 
17 | CC(C)OP(=O)(CCCN=C=S)OC(C)C | 2.6 | 3.3 | Ratio IC50 [3]: 10; Ratio IC50 [4]: 5
18 | O=C1c2c(O)ccc(O)c2C(=O)c2c(NCCNCCO)ccc(NCCNCCO)c21 [MITOXANTRONE] |  |  | Ratio IC50 [5]: 37; IC50 [6]: 0.148 µM; IC50 [7]: 0.004 µM
19 | COc1cccc2c1C(=O)c1c(O)c3c(c(O)c1C2=O)C[C@@](O)(C(=O)CO)C[C@@H]3O[C@H]1C[C@H](N)[C@H](O)[C@H](C)O1 [DOXORUBICIN] | 0.3 | 12.2 | Ratio IC50 [8]: 100; IC50 [9]: 0.1 µM; IC50 [10]: 13.9 µM
20 | COP(=O)(CCCCCCN=C=S)OC | 5.4 | 9.9 | 
21 | O=P(CCCCCN=C=S)(OCc1ccccc1)OCc1ccccc1 | 3.5 | 8.5 | 
22 | CCOP(=O)(CCCCCCCCCCN=C=S)OCC | 10 | 13.1 | 
